Here are results for 20 substances from the OligoGym collection.

Oligonucleotides are given in HELM: sugar(base)linkage, 5' to 3'; d 2'-deoxyribose, r ribose, m 2'-O-methylribose, p phosphate. ss, as = sense and antisense strand
Note: test concentration or dose not given here.

This data set deals with UBE2N. Description: reporter assay of Huesken 2005. The conditions noted are these: siRNA. (In general: Reporter assays use an easily measured gene product as a stand-in for the process of interest.)
In turn, “RNA1{r(A)p.r(G)p.r(C)p.r(C)p.r(C)p.r(A)p.r(A)p.r(G)p.r(C)p.r(C)p.r(A)p.r(U)p.r(A)p.r(G)p.r(A)p.r(A)p.r(A)p.r(C)p.r(A)p.d(T)p.d(T)}|RNA2{r(U)p.r(G)p.r(U)p.r(U)p.r(U)p.r(C)p.r(U)p.r(A)p.r(U)p.r(G)p.r(G)p.r(C)p.r(U)p.r(U)p.r(G)p.r(G)p.r(G)p.r(C)p.r(U)p.d(T)p.d(C)}$$$RNA1{StrandType:ss}|RNA2{StrandType:as}$” displayed a normalised inhibition (eCFP-eYFP dual reporter) of 91.7%.

As for “RNA1{r(A)p.r(G)p.r(C)p.r(G)p.r(G)p.r(A)p.r(G)p.r(C)p.r(A)p.r(G)p.r(U)p.r(G)p.r(G)p.r(A)p.r(A)p.r(G)p.r(A)p.r(C)p.r(C)p.d(T)p.d(T)}|RNA2{r(G)p.r(G)p.r(U)p.r(C)p.r(U)p.r(U)p.r(C)p.r(C)p.r(A)p.r(C)p.r(U)p.r(G)p.r(C)p.r(U)p.r(C)p.r(C)p.r(G)p.r(C)p.r(U)p.d(A)p.d(C)}$$$RNA1{StrandType:ss}|RNA2{StrandType:as}$”, the normalised inhibition (eCFP-eYFP dual reporter) came to 43.9%.

Substance “RNA1{r(A)p.r(U)p.r(A)p.r(G)p.r(A)p.r(A)p.r(A)p.r(C)p.r(A)p.r(G)p.r(C)p.r(U)p.r(A)p.r(G)p.r(A)p.r(G)p.r(C)p.r(A)p.r(U)p.d(T)p.d(T)}|RNA2{r(A)p.r(U)p.r(G)p.r(C)p.r(U)p.r(C)p.r(U)p.r(A)p.r(G)p.r(C)p.r(U)p.r(G)p.r(U)p.r(U)p.r(U)p.r(C)p.r(U)p.r(A)p.r(U)p.d(G)p.d(G)}$$$RNA1{StrandType:ss}|RNA2{StrandType:as}$” displayed a normalised inhibition (eCFP-eYFP dual reporter) of 91.8%.

As to “RNA1{r(A)p.r(U)p.r(C)p.r(A)p.r(U)p.r(C)p.r(C)p.r(U)p.r(A)p.r(A)p.r(U)p.r(G)p.r(U)p.r(A)p.r(G)p.r(A)p.r(C)p.r(A)p.r(A)p.d(T)p.d(T)}|RNA2{r(U)p.r(U)p.r(G)p.r(U)p.r(C)p.r(U)p.r(A)p.r(C)p.r(A)p.r(U)p.r(U)p.r(A)p.r(G)p.r(G)p.r(A)p.r(U)p.r(G)p.r(A)p.r(U)p.d(A)p.d(A)}$$$RNA1{StrandType:ss}|RNA2{StrandType:as}$”, the normalised inhibition (eCFP-eYFP dual reporter) is 46.4%.

In turn, “RNA1{r(A)p.r(U)p.r(C)p.r(C)p.r(G)p.r(C)p.r(A)p.r(C)p.r(A)p.r(G)p.r(U)p.r(U)p.r(C)p.r(U)p.r(G)p.r(C)p.r(U)p.r(A)p.r(U)p.d(T)p.d(T)}|RNA2{r(A)p.r(U)p.r(A)p.r(G)p.r(C)p.r(A)p.r(G)p.r(A)p.r(A)p.r(C)p.r(U)p.r(G)p.r(U)p.r(G)p.r(C)p.r(G)p.r(G)p.r(A)p.r(U)p.d(C)p.d(T)}$$$RNA1{StrandType:ss}|RNA2{StrandType:as}$” registered a normalised inhibition (eCFP-eYFP dual reporter) of 54.2%.

“RNA1{r(A)p.r(U)p.r(G)p.r(U)p.r(C)p.r(U)p.r(A)p.r(G)p.r(A)p.r(U)p.r(A)p.r(U)p.r(U)p.r(U)p.r(U)p.r(G)p.r(A)p.r(A)p.r(A)p.d(T)p.d(T)}|RNA2{r(U)p.r(U)p.r(U)p.r(C)p.r(A)p.r(A)p.r(A)p.r(A)p.r(U)p.r(A)p.r(U)p.r(C)p.r(U)p.r(A)p.r(G)p.r(A)p.r(C)p.r(A)p.r(U)p.d(A)p.d(T)}$$$RNA1{StrandType:ss}|RNA2{StrandType:as}$” registered a normalised inhibition (eCFP-eYFP dual reporter) of 75.9%.

In turn, “RNA1{r(A)p.r(U)p.r(G)p.r(U)p.r(G)p.r(G)p.r(U)p.r(C)p.r(A)p.r(U)p.r(U)p.r(G)p.r(C)p.r(U)p.r(G)p.r(G)p.r(C)p.r(C)p.r(C)p.d(T)p.d(T)}|RNA2{r(G)p.r(G)p.r(G)p.r(C)p.r(C)p.r(A)p.r(G)p.r(C)p.r(A)p.r(A)p.r(U)p.r(G)p.r(A)p.r(C)p.r(C)p.r(A)p.r(C)p.r(A)p.r(U)p.d(G)p.d(A)}$$$RNA1{StrandType:ss}|RNA2{StrandType:as}$” registered a normalised inhibition (eCFP-eYFP dual reporter) of 47.1%.

With “RNA1{r(A)p.r(U)p.r(U)p.r(A)p.r(G)p.r(C)p.r(A)p.r(A)p.r(A)p.r(U)p.r(G)p.r(A)p.r(U)p.r(G)p.r(U)p.r(A)p.r(G)p.r(C)p.r(G)p.d(T)p.d(T)}|RNA2{r(C)p.r(G)p.r(C)p.r(U)p.r(A)p.r(C)p.r(A)p.r(U)p.r(C)p.r(A)p.r(U)p.r(U)p.r(U)p.r(G)p.r(C)p.r(U)p.r(A)p.r(A)p.r(U)p.d(G)p.d(G)}$$$RNA1{StrandType:ss}|RNA2{StrandType:as}$”, the normalised inhibition (eCFP-eYFP dual reporter) is 34.2%.

“RNA1{r(A)p.r(U)p.r(U)p.r(U)p.r(A)p.r(U)p.r(C)p.r(A)p.r(U)p.r(C)p.r(C)p.r(U)p.r(A)p.r(A)p.r(U)p.r(G)p.r(U)p.r(A)p.r(G)p.d(T)p.d(T)}|RNA2{r(C)p.r(U)p.r(A)p.r(C)p.r(A)p.r(U)p.r(U)p.r(A)p.r(G)p.r(G)p.r(A)p.r(U)p.r(G)p.r(A)p.r(U)p.r(A)p.r(A)p.r(A)p.r(U)p.d(T)p.d(T)}$$$RNA1{StrandType:ss}|RNA2{StrandType:as}$” came in with a normalised inhibition (eCFP-eYFP dual reporter) of 49.2%.

Consider “RNA1{r(A)p.r(U)p.r(U)p.r(U)p.r(U)p.r(C)p.r(A)p.r(U)p.r(G)p.r(U)p.r(G)p.r(G)p.r(U)p.r(C)p.r(A)p.r(U)p.r(U)p.r(G)p.r(C)p.d(T)p.d(T)}|RNA2{r(G)p.r(C)p.r(A)p.r(A)p.r(U)p.r(G)p.r(A)p.r(C)p.r(C)p.r(A)p.r(C)p.r(A)p.r(U)p.r(G)p.r(A)p.r(A)p.r(A)p.r(A)p.r(U)p.d(A)p.d(A)}$$$RNA1{StrandType:ss}|RNA2{StrandType:as}$”, for which the normalised inhibition (eCFP-eYFP dual reporter) amounted to 47.1%.

For “RNA1{r(C)p.r(A)p.r(A)p.r(A)p.r(U)p.r(G)p.r(A)p.r(U)p.r(G)p.r(U)p.r(A)p.r(G)p.r(C)p.r(G)p.r(G)p.r(A)p.r(G)p.r(C)p.r(A)p.d(T)p.d(T)}|RNA2{r(U)p.r(G)p.r(C)p.r(U)p.r(C)p.r(C)p.r(G)p.r(C)p.r(U)p.r(A)p.r(C)p.r(A)p.r(U)p.r(C)p.r(A)p.r(U)p.r(U)p.r(U)p.r(G)p.d(C)p.d(T)}$$$RNA1{StrandType:ss}|RNA2{StrandType:as}$”, the normalised inhibition (eCFP-eYFP dual reporter) amounted to 64.2%.

Substance “RNA1{r(C)p.r(A)p.r(A)p.r(C)p.r(G)p.r(A)p.r(A)p.r(G)p.r(C)p.r(C)p.r(C)p.r(A)p.r(A)p.r(G)p.r(C)p.r(C)p.r(A)p.r(U)p.r(A)p.d(T)p.d(T)}|RNA2{r(U)p.r(A)p.r(U)p.r(G)p.r(G)p.r(C)p.r(U)p.r(U)p.r(G)p.r(G)p.r(G)p.r(C)p.r(U)p.r(U)p.r(C)p.r(G)p.r(U)p.r(U)p.r(G)p.d(G)p.d(T)}$$$RNA1{StrandType:ss}|RNA2{StrandType:as}$” returned a normalised inhibition (eCFP-eYFP dual reporter) of 94%.

As for “RNA1{r(C)p.r(A)p.r(A)p.r(C)p.r(G)p.r(C)p.r(C)p.r(C)p.r(G)p.r(U)p.r(U)p.r(A)p.r(U)p.r(U)p.r(U)p.r(U)p.r(C)p.r(A)p.r(U)p.d(T)p.d(T)}|RNA2{r(A)p.r(U)p.r(G)p.r(A)p.r(A)p.r(A)p.r(A)p.r(U)p.r(A)p.r(A)p.r(C)p.r(G)p.r(G)p.r(G)p.r(C)p.r(G)p.r(U)p.r(U)p.r(G)p.d(C)p.d(T)}$$$RNA1{StrandType:ss}|RNA2{StrandType:as}$”, the normalised inhibition (eCFP-eYFP dual reporter) was determined as 87.1%.

On to “RNA1{r(C)p.r(A)p.r(G)p.r(U)p.r(G)p.r(G)p.r(A)p.r(A)p.r(G)p.r(A)p.r(C)p.r(C)p.r(A)p.r(A)p.r(C)p.r(G)p.r(A)p.r(A)p.r(G)p.d(T)p.d(T)}|RNA2{r(C)p.r(U)p.r(U)p.r(C)p.r(G)p.r(U)p.r(U)p.r(G)p.r(G)p.r(U)p.r(C)p.r(U)p.r(U)p.r(C)p.r(C)p.r(A)p.r(C)p.r(U)p.r(G)p.d(C)p.d(T)}$$$RNA1{StrandType:ss}|RNA2{StrandType:as}$”, for which the normalised inhibition (eCFP-eYFP dual reporter) was 78%.

As for “RNA1{r(C)p.r(A)p.r(G)p.r(U)p.r(U)p.r(C)p.r(C)p.r(U)p.r(G)p.r(G)p.r(C)p.r(A)p.r(U)p.r(C)p.r(A)p.r(A)p.r(A)p.r(G)p.r(C)p.d(T)p.d(T)}|RNA2{r(G)p.r(C)p.r(U)p.r(U)p.r(U)p.r(G)p.r(A)p.r(U)p.r(G)p.r(C)p.r(C)p.r(A)p.r(G)p.r(G)p.r(A)p.r(A)p.r(C)p.r(U)p.r(G)p.d(G)p.d(T)}$$$RNA1{StrandType:ss}|RNA2{StrandType:as}$”, the normalised inhibition (eCFP-eYFP dual reporter) was found to be 61.4%.

Take “RNA1{r(C)p.r(A)p.r(U)p.r(A)p.r(G)p.r(A)p.r(A)p.r(A)p.r(C)p.r(A)p.r(G)p.r(C)p.r(U)p.r(A)p.r(G)p.r(A)p.r(G)p.r(C)p.r(A)p.d(T)p.d(T)}|RNA2{r(U)p.r(G)p.r(C)p.r(U)p.r(C)p.r(U)p.r(A)p.r(G)p.r(C)p.r(U)p.r(G)p.r(U)p.r(U)p.r(U)p.r(C)p.r(U)p.r(A)p.r(U)p.r(G)p.d(G)p.d(C)}$$$RNA1{StrandType:ss}|RNA2{StrandType:as}$”: the normalised inhibition (eCFP-eYFP dual reporter) worked out at 95.3%.

The substance “RNA1{r(C)p.r(A)p.r(U)p.r(C)p.r(A)p.r(A)p.r(A)p.r(G)p.r(C)p.r(C)p.r(G)p.r(A)p.r(A)p.r(C)p.r(C)p.r(A)p.r(G)p.r(A)p.r(U)p.d(T)p.d(T)}|RNA2{r(A)p.r(U)p.r(C)p.r(U)p.r(G)p.r(G)p.r(U)p.r(U)p.r(C)p.r(G)p.r(G)p.r(C)p.r(U)p.r(U)p.r(U)p.r(G)p.r(A)p.r(U)p.r(G)p.d(C)p.d(C)}$$$RNA1{StrandType:ss}|RNA2{StrandType:as}$” came in with a normalised inhibition (eCFP-eYFP dual reporter) of 84.7%.

“RNA1{r(C)p.r(A)p.r(U)p.r(U)p.r(A)p.r(G)p.r(C)p.r(A)p.r(A)p.r(A)p.r(U)p.r(G)p.r(A)p.r(U)p.r(G)p.r(U)p.r(A)p.r(G)p.r(C)p.d(T)p.d(T)}|RNA2{r(G)p.r(C)p.r(U)p.r(A)p.r(C)p.r(A)p.r(U)p.r(C)p.r(A)p.r(U)p.r(U)p.r(U)p.r(G)p.r(C)p.r(U)p.r(A)p.r(A)p.r(U)p.r(G)p.d(G)p.d(A)}$$$RNA1{StrandType:ss}|RNA2{StrandType:as}$” gave a normalised inhibition (eCFP-eYFP dual reporter) of 30.2%.

Turning to “RNA1{r(C)p.r(C)p.r(A)p.r(G)p.r(A)p.r(U)p.r(G)p.r(A)p.r(G)p.r(A)p.r(G)p.r(C)p.r(A)p.r(A)p.r(C)p.r(G)p.r(C)p.r(C)p.r(C)p.d(T)p.d(T)}|RNA2{r(G)p.r(G)p.r(G)p.r(C)p.r(G)p.r(U)p.r(U)p.r(G)p.r(C)p.r(U)p.r(C)p.r(U)p.r(C)p.r(A)p.r(U)p.r(C)p.r(U)p.r(G)p.r(G)p.d(T)p.d(T)}$$$RNA1{StrandType:ss}|RNA2{StrandType:as}$”, the normalised inhibition (eCFP-eYFP dual reporter) amounted to 65.8%.

“RNA1{r(C)p.r(C)p.r(A)p.r(U)p.r(U)p.r(A)p.r(G)p.r(C)p.r(A)p.r(A)p.r(A)p.r(U)p.r(G)p.r(A)p.r(U)p.r(G)p.r(U)p.r(A)p.r(G)p.d(T)p.d(T)}|RNA2{r(C)p.r(U)p.r(A)p.r(C)p.r(A)p.r(U)p.r(C)p.r(A)p.r(U)p.r(U)p.r(U)p.r(G)p.r(C)p.r(U)p.r(A)p.r(A)p.r(U)p.r(G)p.r(G)p.d(A)p.d(T)}$$$RNA1{StrandType:ss}|RNA2{StrandType:as}$” came in with a normalised inhibition (eCFP-eYFP dual reporter) of 77.9%.
